Laboratory results published in PubChem BioAssay AID296 (DTP/NCI, 2004).
Several values for one entry are separate records, joined by “and”; a condition that tells them apart may be missing. Equal entries are not always repeated. Records with an inconclusive call do not appear.

System: MX-1 breast xenograft, nude mice, tumor weight T/C
Test: NCI In Vivo Anticancer Drug Screen. Data for tumor model Human Mammary Carcinoma MX-1 Xenograft (intrarenal inoculation) in NU/NU Swiss (nude) mice
Conditions: endpoint: mean tumor weight change, higher = larger tumour
In short: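 Activity is given as a ratio, with each measurement in the compound-treated arm divided by the matching measurement in vehicle-dosed controls. Tumour size or survival serves as the measured parameter.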

[1] = dose: 200.0 mg/kg/injection, schedule: Q01DX010 (sc), vehicle: saline
[2] = dose: 100.0 mg/kg/injection, schedule: Q01DX010 (sc), vehicle: saline with Tween-80
[3] = dose: 200.0 mg/kg/injection, schedule: Q01DX010 (sc), vehicle: saline with Tween-80
[4] = dose: 50.0 mg/kg/injection, schedule: Q01DX010 (sc), vehicle: saline
[5] = dose: 100.0 mg/kg/injection, schedule: Q01DX010 (sc), vehicle: saline
[6] = dose: 300.0 mg/kg/injection, schedule: Q04DX003 (sc), vehicle: saline with Tween-80
[7] = dose: 300.0 mg/kg/injection, schedule: Q04DX003 (sc), vehicle: suspension in saline
[8] = dose: 600.0 mg/kg/injection, schedule: Q04DX003 (sc), vehicle: suspension in saline
[9] = dose: 1200.0 mg/kg/injection, schedule: Q04DX003 (sc), vehicle: suspension in saline
[10] = dose: 2400.0 mg/kg/injection, schedule: Q04DX003 (sc), vehicle: suspension in saline
[11] = dose: 300.0 mg/kg/injection, schedule: Q04DX003 (sc), vehicle: saline
[12] = dose: 25.0 mg/kg/injection, schedule: Q01DX010 (sc), vehicle: saline with Tween-80
[13] = dose: 50.0 mg/kg/injection, schedule: Q01DX010 (sc), vehicle: saline with Tween-80
[14] = dose: 600.0 mg/kg/injection, schedule: Q04DX003 (sc), vehicle: saline with Tween-80
[15] = dose: 1200.0 mg/kg/injection, schedule: Q04DX003 (sc), vehicle: saline with Tween-80
[16] = dose: 2400.0 mg/kg/injection, schedule: Q04DX003 (sc), vehicle: saline with Tween-80

O=C(O)c1cc(C(=O)O)c(C(=O)O)cc1C(=O)O.[NH2-].[NH2-].[NH2-].[NH2-].[Pt+2].[Pt+2]
T/C (dose: 1.25 mg/kg/injection, schedule: Q04DX003 (ip), vehicle: water): 113 % of control
T/C (dose: 5.0 mg/kg/injection, schedule: Q04DX003 (ip), vehicle: water): 97 % of control
T/C (dose: 10.0 mg/kg/injection, schedule: Q04DX003 (ip), vehicle: water): 60 % of control and 76 % of control
T/C (dose: 20.0 mg/kg/injection, schedule: Q04DX003 (ip), vehicle: water): 66 % of control
T/C (dose: 40.0 mg/kg/injection, schedule: Q04DX003 (ip), vehicle: water): 26 % of control
T/C (dose: 80.0 mg/kg/injection, schedule: Q04DX003 (ip), vehicle: water): 15 % of control

NC(=O)NO
T/C [1]: 44 % of control
T/C (dose: 400.0 mg/kg/injection, schedule: Q01DX010 (sc), vehicle: saline): 49 % of control

Cc1nc(C(Cl)(Cl)Cl)[nH]c(=O)c1SCCO
T/C (dose: 150.0 mg/kg/injection, schedule: Q04DX003 (ip), vehicle: distilled water + alcohol): 162 % of control
T/C (dose: 300.0 mg/kg/injection, schedule: Q04DX003 (ip), vehicle: distilled water + alcohol): 195 % of control
T/C (dose: 600.0 mg/kg/injection, schedule: Q04DX003 (ip), vehicle: distilled water + alcohol): 50 % of control

O=C(Nc1ccccc1C(=O)O)c1cc([N+](=O)[O-])cc([N+](=O)[O-])c1
T/C (dose: 100.0 mg/kg/injection, schedule: Q04DX003 (sc), vehicle: saline with Tween-80): 101 % of control
T/C (dose: 200.0 mg/kg/injection, schedule: Q04DX003 (sc), vehicle: saline with Tween-80): 120 % of control

C[C@@H](CN1CC(=O)NC(=O)C1)N1CC(=O)NC(=O)C1
T/C [2]: 63 % of control
T/C [3]: 81 % of control
T/C (dose: 400.0 mg/kg/injection, schedule: Q01DX010 (sc), vehicle: saline with Tween-80): 39 % of control

CCCCC(=O)OCC(=O)[C@]1(O)Cc2c(O)c3c(c(O)c2[C@@H](OC2CC(NC(=O)C(F)(F)F)C(O)C(C)O2)C1)C(=O)c1c(OC)cccc1C3=O (stereo partly drawn)
T/C (dose: 64.0 mg/kg/injection, schedule: Q01DX010 (sc), vehicle: distilled water + Tween-80): 91 % of control
T/C (dose: 128.0 mg/kg/injection, schedule: Q01DX010 (sc), vehicle: distilled water + Tween-80): 56 % of control
T/C (dose: 256.0 mg/kg/injection, schedule: Q01DX010 (sc), vehicle: distilled water + Tween-80): 34 % of control

C[N+](C)(C)c1ncnc2nc[nH]c12
T/C [4]: 57 % of control
T/C [5]: 38 % of control

COC12[C@@H]3N[C@@H]3CN1C1=C(C(=O)C(NCCSSCCNC3=C(C)C(=O)C4=C(C3=O)C(COC(N)=O)[C@]3(OC)C5N[C@@H]5CN43)=C(C)C1=O)[C@@H]2COC(N)=O (stereo partly drawn)
T/C (dose: 3.12 mg/kg/injection, schedule: Q04DX003 (ip), vehicle: DMSO): 17 % of control
T/C (dose: 12.5 mg/kg/injection, schedule: Q04DX003 (ip), vehicle: DMSO): 14 % of control
T/C (dose: 25.0 mg/kg/injection, schedule: Q04DX003 (ip), vehicle: DMSO): -1 % of control

NC(=O)CC(N)C(=O)O (stereo not drawn)
T/C (dose: 1600.0 mg/kg/injection, schedule: Q04DX003 (sc), vehicle: saline): 88 % of control
T/C (dose: 3200.0 mg/kg/injection, schedule: Q04DX003 (sc), vehicle: saline): 68 % of control
T/C (dose: 6400.0 mg/kg/injection, schedule: Q04DX003 (sc), vehicle: saline): 90 % of control

CC(C)NC(=O)N(CCCCBr)N=O
T/C (dose: 75.0 mg/kg/injection, schedule: Q04DX003 (sc), vehicle: Klucel (hydroxypropylcellulose) (HPC)): 42 % of control and 47 % of control
T/C (dose: 300.0 mg/kg/injection, schedule: Q04DX003 (sc), vehicle: Klucel (hydroxypropylcellulose) (HPC)): 40 % of control

O=C1NC2(CCCCC2)C(=O)N1CCN(CCCl)CCCl
T/C (dose: 3.0 mg/kg/injection, schedule: Q01DX010 (sc), vehicle: saline): 48 % of control

C[CH2][Ge]([CH2]C)[CH2]C.C[CH2][Ge]([CH2]C)[CH2]C.C[CH2][Ge]([CH2]C)[O][Ge]([CH2]C)[CH2]C
T/C (dose: 150.0 mg/kg/injection, schedule: Q04DX003 (sc), vehicle: saline with Tween-80): 109 % of control
T/C [6]: 79 % of control

C=C1C(=O)C2=CC1CCC(=O)C1(C)CCC(OC(C)=O)C(C)(C)C1CC2O (stereo not drawn)
T/C (dose: 30.0 mg/kg/injection, schedule: Q04DX003 (sc), vehicle: Klucel (hydroxypropylcellulose) (HPC)): 107 % of control
T/C (dose: 60.0 mg/kg/injection, schedule: Q04DX003 (sc), vehicle: Klucel (hydroxypropylcellulose) (HPC)): 69 % of control
T/C (dose: 120.0 mg/kg/injection, schedule: Q04DX003 (sc), vehicle: Klucel (hydroxypropylcellulose) (HPC)): 42 % of control

C(CSC1=NCCN1)CSC1=NCCN1
T/C [4]: 103 % of control

CC1=CC2c3cccc4[nH]cc(c34)CC2N(C)C1 (stereo not drawn)
T/C (dose: 12.5 mg/kg/injection, schedule: Q04DX003 (sc), vehicle: suspension in saline): 153 % of control

CS(=O)(=O)OCCN(CCOS(C)(=O)=O)c1ccc(C=Nc2ccc(-c3csc(COc4ccccc4)n3)cc2)cc1
T/C (dose: 50.0 mg/kg/injection, schedule: Q01DX010 (sc), vehicle: Klucel (hydroxypropylcellulose) (HPC)): 37 % of control
T/C (dose: 100.0 mg/kg/injection, schedule: Q01DX010 (sc), vehicle: Klucel (hydroxypropylcellulose) (HPC)): -18 % of control
T/C (dose: 200.0 mg/kg/injection, schedule: Q01DX010 (sc), vehicle: Klucel (hydroxypropylcellulose) (HPC)): -84 % of control

CC1=CC(=NN=c2cc(C)n([O-])c(C)c2)C=C(C)[N+]1=O
T/C [7]: 90 % of control
T/C [8]: 36 % of control
T/C [9]: 112 % of control
T/C [10]: 32 % of control

CCC(CC)COC(=O)c1ccccc1C(=O)OCC(CC)CC
T/C [11]: 112 % of control
T/C (dose: 600.0 mg/kg/injection, schedule: Q04DX003 (sc), vehicle: saline): 82 % of control
T/C (dose: 1200.0 mg/kg/injection, schedule: Q04DX003 (sc), vehicle: saline): 110 % of control
T/C (dose: 2400.0 mg/kg/injection, schedule: Q04DX003 (sc), vehicle: saline): 88 % of control

C=CCOCC1CO1 (stereo not drawn)
T/C [11]: 72 % of control

NC(=S)c1ncn(C2OC(CO)C(O)C2O)c1N (stereo not drawn)
T/C [7]: 50 % of control
T/C [8]: 89 % of control
T/C [9]: 95 % of control
T/C [10]: 99 % of control

CC1OC(=O)C(C(C)C)NC(=O)C(C(C)C)OC(=O)C(C(C)C)NC(=O)C(C)OC(=O)C(C(C)C)NC(=O)C(C(C)C)OC(=O)C(C(C)C)NC(=O)C(C)OC(=O)C(C(C)C)NC(=O)C(C(C)C)OC(=O)C(C(C)C)NC1=O (stereo not drawn)
T/C (dose: 2.5 mg/kg/injection, schedule: Q01DX010 (sc), vehicle: saline with Tween-80): 84 % of control
T/C (dose: 5.0 mg/kg/injection, schedule: Q01DX010 (sc), vehicle: saline with Tween-80): 150 % of control
T/C (dose: 10.0 mg/kg/injection, schedule: Q01DX010 (sc), vehicle: saline with Tween-80): 95 % of control and 112 % of control

S=C=NCCc1ccccc1
T/C [12]: 161 % of control
T/C [13]: 156 % of control
T/C [2]: 72 % of control
T/C [3]: 113 % of control

CCCCCCOC(CN(C)C)C(Cl)(Cl)Cl (stereo not drawn)
T/C [6]: 70 % of control
T/C [14]: 69 % of control
T/C [15]: 71 % of control
T/C [16]: 58 % of control

CC1(C)OC(=O)N(CO)C1=O
T/C (dose: 25.0 mg/kg/injection, schedule: Q01DX010 (sc), vehicle: saline): 45 % of control
T/C [4]: 31 % of control
T/C [5]: 48 % of control
T/C [1]: 114 % of control

O=c1nc(Oc2ccccc2)nc2ncccn12
T/C [12]: 100 % of control
T/C [13]: 120 % of control
T/C [2]: 42 % of control
T/C [3]: 46 % of control

Cc1oc2c(C)c3oc(=O)cc(C)c3cc2c1CCl
T/C [6]: 109 % of control
T/C [14]: 75 % of control
T/C [15]: 83 % of control
T/C [16]: 54 % of control

CN1CCN(c2ccc([N+](=O)[O-])c3no[n+]([O-])c23)CC1
T/C (dose: 20.0 mg/kg/injection, schedule: Q01DX010 (sc), vehicle: saline with Tween-80): 45 % of control
T/C (dose: 40.0 mg/kg/injection, schedule: Q01DX010 (sc), vehicle: saline with Tween-80): 69 % of control
